This is an account of results in patent publication US9567345B2, “Pharmaceutically active pyrazolo-triazine derivatives” (LEAD DISCOVERY CENTER GMBH, priority 2012, dated 2017).

Where two headings read alike, the source gives them in different places.

What all share (format): biochemical
The target of one experiment is CDK9/Cyclin T1 (Homo sapiens, UniProt P50750). Briefly: CDK9 Enzymatic Activity Assay (Lance Kinase Activity Assay, FRET). To be noted: for IC50: Table 5B, class symbols per IC50 [nM] ranges of b581, read-out: CDK9: Selectivity of CDK7 inhibition over CDK9 inhibition. Summed up:
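CDK9/cyclin T1 phosphorylation of a ULight-MBP peptide was run for 1 h at room temperature in pH 7.5 HEPES buffer with MgCl2, EGTA, DTT and Tween-20. It was followed by 1 h with Eu-anti-phospho-MBP antibody (4 nM) in EDTA detection buffer. TR-FRET loss gave IC50 from 8-point, 1:3 sigmoidal dose-response curves.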

Another experiment has as its target CDK7/CycH/Mat1 (Homo sapiens, UniProt P50613). Briefly: CDK7 Enzymatic Activity Assay (Lance Kinase Activity Assay, FRET). In outline:
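TR-FRET (LANCE) kinase assay: CDK7/CycH/Mat1 phosphorylates Ulight-MBP substrate for 1 h at room temperature in pH 7.5 HEPES buffer; detection 1 h with Eu-labelled anti-phospho antibody plus EDTA.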

In another experiment the target is T1, CDK2/CycA (Homo sapiens, UniProt P24941).
T1 construct: purchased Proqinase
Nature of the experiment: CDK2 Enzymatic Activity Assay (Lance Kinase Activity Assay, FRET). To be noted: for IC50: Table 5B, class symbols per IC50 [nM] ranges of b581, read-out: CDK2: Selectivity of CDK7 inhibition over CDK2 inhibition. As for the experimental part:
This protocol describes how the Lance Kinase Activity Assay was performed to determine IC50 values of compounds of general formula (I) against CDK/Cyclin complexes. The principle behind this enzymatic assay is based upon the phosphorylation of the Ulight-Peptide Substrat. It is detected by using a specific EU-labeled anti-phospho peptide antibody.
Binding of an inhibitor to the kinase prevents phosphorylation of the Ulight-MBP Substrat, resulting in a loss of FRET.
CDK2 Enzymatic Activity Assay
The compounds of general formula (I) exemplary summarized in Table 1 were diluted from a 10 mM DMSO stock solution 1:10 in a total volume of 15 μl DMSO. This compound predilution was then serial diluted 1:3 over 8 steps in DMSO and briefly spun down. Each compound solution was now diluted 1:20 in Enzymatic Buffer (HEPES: 50 mM, pH: 7.5; MgCl2: 10 mM; EGTA: 1 mM; DTT: 2 mM; Tween-20: 0.01%), mixed thoroughly and spun down.
For positive controls, 2 μl of DMSO working solution were mixed with 6 μl CDK2/CycA/substrate working solution and 2 μl ATP working solution. Positive and negative controls were calculated from at least 8 different wells. The 384 well plates were mixed in a Teleshaker plate mixer (Beckman Coulter, Brea, Calif., USA) at 2000 rpm for 40 sec, and incubated for 1 h at room temperature before addition of 10 μl LANCE Detection Buffer (EDTA: […]; Eu-Anti-P-MBP: 4 nM) per well. Plates were mixed in a Teleshaker plate mixer (Beckman Coulter, Brea, Calif., USA) at 2000 rpm for 40 sec, followed by incubation with Detection Buffer for 1 h, and reading. […] IC50 values were determined from the sigmoidal dose response curves with the software Quattro Workflow (Quattro GmbH, Munich, Germany).

Setting [1] is: CDK7/CycH/Mat1, 25 μM ATP final, class ranges, read-out: CDK7: IC50 [nM] for CDK7 inhibition.

Sequence of CDK7/CycH/Mat1 (P50613 whole entry): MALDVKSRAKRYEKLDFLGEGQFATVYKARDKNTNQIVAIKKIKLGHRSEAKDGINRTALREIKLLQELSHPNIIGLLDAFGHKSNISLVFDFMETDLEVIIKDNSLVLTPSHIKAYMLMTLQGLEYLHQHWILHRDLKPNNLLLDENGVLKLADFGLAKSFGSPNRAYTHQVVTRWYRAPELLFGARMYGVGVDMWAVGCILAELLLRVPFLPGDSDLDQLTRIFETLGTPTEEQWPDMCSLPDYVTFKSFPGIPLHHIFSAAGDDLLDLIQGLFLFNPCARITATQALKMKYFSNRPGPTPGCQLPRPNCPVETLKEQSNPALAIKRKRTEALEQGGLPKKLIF
Sequence of CDK9/Cyclin T1 (P50750 whole entry): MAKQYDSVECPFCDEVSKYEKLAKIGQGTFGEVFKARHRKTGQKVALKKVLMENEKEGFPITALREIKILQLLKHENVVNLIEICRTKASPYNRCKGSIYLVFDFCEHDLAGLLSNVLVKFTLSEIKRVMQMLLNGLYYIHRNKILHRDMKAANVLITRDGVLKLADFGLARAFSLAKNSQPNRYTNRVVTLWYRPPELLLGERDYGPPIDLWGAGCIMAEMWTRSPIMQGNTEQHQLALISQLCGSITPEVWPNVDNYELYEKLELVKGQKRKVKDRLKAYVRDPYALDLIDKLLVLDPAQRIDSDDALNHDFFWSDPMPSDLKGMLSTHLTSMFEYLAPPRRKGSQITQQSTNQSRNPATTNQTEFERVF
Sequence of CDK9/Cyclin T1 (O60563 whole entry partner): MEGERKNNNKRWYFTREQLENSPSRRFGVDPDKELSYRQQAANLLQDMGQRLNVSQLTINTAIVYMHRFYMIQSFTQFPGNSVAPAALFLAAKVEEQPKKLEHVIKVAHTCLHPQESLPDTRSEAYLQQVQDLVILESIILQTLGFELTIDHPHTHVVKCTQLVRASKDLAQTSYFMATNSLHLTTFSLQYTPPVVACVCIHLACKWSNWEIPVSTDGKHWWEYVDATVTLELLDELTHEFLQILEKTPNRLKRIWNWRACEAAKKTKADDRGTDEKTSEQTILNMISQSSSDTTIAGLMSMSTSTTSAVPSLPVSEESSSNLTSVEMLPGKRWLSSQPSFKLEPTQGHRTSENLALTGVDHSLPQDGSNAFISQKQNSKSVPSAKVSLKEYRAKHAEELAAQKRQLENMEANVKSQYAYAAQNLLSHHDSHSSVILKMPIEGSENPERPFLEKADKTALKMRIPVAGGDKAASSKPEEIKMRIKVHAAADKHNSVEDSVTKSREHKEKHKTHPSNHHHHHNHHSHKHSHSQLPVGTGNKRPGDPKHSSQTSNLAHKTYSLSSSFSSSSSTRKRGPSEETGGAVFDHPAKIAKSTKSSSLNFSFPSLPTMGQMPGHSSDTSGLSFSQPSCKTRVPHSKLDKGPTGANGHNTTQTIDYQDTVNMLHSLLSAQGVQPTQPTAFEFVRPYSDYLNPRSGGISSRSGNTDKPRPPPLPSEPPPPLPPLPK

With `CC(C)c1cnn2c(NCc3ccccc3-n3ccnc3)nc(OC3CCN(C)CC3)nc12` [(VII-59), N-(2-(1H-imidazol-1-yl)benzyl)-8-isopropyl-2-((1-methylpiperidin-4-yl)oxy)pyrazolo[1,5-a][1,3,5]triazin-4-amine], the IC50 on CDK9/Cyclin T1 is above 2500 nM; at CDK7/CycH/Mat1 (setting [1]) it was below 5 nM; at CDK7/CycH/Mat1 (Table 6, read-out: IC50 CDK7) it was below 5 nM. Besides, the “Selectivity CDK7 over CDK9” value at CDK9/Cyclin T1 (Table 6) is listed as 9140 fold. On CDK2/CycA (Table 6), the “Selectivity CDK7 over CDK2” value worked out at 3926 fold.
As to `CC(C)c1cnn2c(NCc3cccc4ccccc34)nc(OC3CCN(C)CC3)nc12` [(VII-61), 8-isopropyl-2-((1-methylpiperidin-4-yl)oxy)-N-(naphthalen-1-ylmethyl)pyrazolo[1,5-a][1,3,5]triazin-4-amine], the IC50 on CDK9/Cyclin T1 fell in the range of 50 to 500 nM; at CDK7/CycH/Mat1 (setting [1]), 5 to 10 nM; on CDK2/CycA it was 500 to 2500 nM.
With `CC(C)c1cnn2c(NCc3ccccc3-c3cccs3)nc(OC3CCN(C)CC3)nc12` [(VII-65), 8-isopropyl-2-((1-methylpiperidin-4-yl)oxy)-N-(2-(thiophen-2-yl)benzyl)pyrazolo[1,5-a][1,3,5]triazin-4-amine], the IC50 at CDK9/Cyclin T1 was above 2500 nM; at CDK7/CycH/Mat1 (setting [1]), below 5 nM; on CDK2/CycA, 50 to 500 nM.
For `CC(C)c1cnn2c(NCc3ccccc3Cl)nc(OC3CCN(C)CC3)nc12` [(VII-68), N-(2-chlorobenzyl)-8-isopropyl-2-((1-methylpiperidin-4-yl)oxy)pyrazolo[1,5-a][1,3,5]triazin-4-amine], the IC50 was 50 to 500 nM at CDK9/Cyclin T1, below 5 nM at CDK7/CycH/Mat1 (setting [1]) and 50 to 500 nM at CDK2/CycA.
Turning to `COc1ccccc1CNc1nc(OC2CCN(C)CC2)nc2c(C(C)C)cnn12` [(VII-71), 8-isopropyl-N-(2-methoxybenzyl)-2-((1-methylpiperidin-4-yl)oxy)pyrazolo[1,5-a][1,3,5]triazin-4-amine], the values for the IC50 at CDK9/Cyclin T1, at CDK7/CycH/Mat1 (setting [1]) and on CDK2/CycA were 50 to 500 nM, below 5 nM and 50 to 500 nM, respectively.
With `CC(C)c1cnn2c(NCc3ccccc3OC(F)F)nc(OC3CCN(C)CC3)nc12` [(VII-72), N-(2-(difluoromethoxy)benzyl)-8-isopropyl-2-((1-methylpiperidin-4-yl)oxy)pyrazolo[1,5-a][1,3,5]triazin-4-amine], the IC50 is 50 to 500 nM on CDK9/Cyclin T1, below 5 nM on CDK7/CycH/Mat1 (setting [1]) and 50 to 500 nM at CDK2/CycA.
As for `CC(C)c1cnn2c(NCc3ccccc3-n3cccn3)nc(OC3CCN(C)CC3)nc12` [(VII-73), N-(2-(1H-pyrazol-1-yl)benzyl)-8-isopropyl-2-((1-methylpiperidin-4-yl)oxy)pyrazolo[1,5-a][1,3,5]triazin-4-amine], the IC50 on CDK9/Cyclin T1 was above 2500 nM; at CDK7/CycH/Mat1 (setting [1]), below 5 nM; at CDK2/CycA it was 500 to 2500 nM.
With `CC(C)c1cnn2c(NCc3ccccc3-n3cncn3)nc(OC3CCN(C)CC3)nc12` [(VII-74), N-(2-(1H-1,2,4-triazol-1-yl)benzyl)-8-isopropyl-2-((1-methylpiperidin-4-yl)oxy)pyrazolo[1,5-a][1,3,5]triazin-4-amine], the IC50 at CDK9/Cyclin T1 was above 2500 nM; at CDK7/CycH/Mat1 (setting [1]) it was below 5 nM; at CDK2/CycA, 50 to 500 nM.
As to `CC(C)c1cnn2c(NCc3ccccc3CN3CCCC3=O)nc(O[C@@H]3CCCNC3)nc12` [(VII-092), (R)-1-(2-(((8-isopropyl-2-(piperidin-3-yloxy)pyrazolo[1,5-a][1,3,5]triazin-4-yl)amino)methyl)benzyl)pyrrolidin-2-one], the IC50 is above 2500 nM at CDK9/Cyclin T1, 10 to 25 nM on CDK7/CycH/Mat1 (setting [1]) and above 2500 nM at CDK2/CycA.
As to `Cc1ccc(CNc2nc(O[C@@H]3CCCNC3)nc3c(C(C)C)cnn23)c(OC2CCOC2)c1` (stereo partly drawn) [(VII-093), 8-isopropyl-N-(4-methyl-2-((tetrahydrofuran-3-yl)oxy)benzyl)-2-((R)-piperidin-3-yloxy)pyrazolo[1,5-a][1,3,5]triazin-4-amine], the IC50 on CDK9/Cyclin T1 was above 2500 nM; at CDK7/CycH/Mat1 (setting [1]), above 25 nM; on CDK2/CycA it was above 2500 nM.
With `CC(C)c1cnn2c(NCc3ccccc3OC3CCCC3)nc(O[C@@H]3CCCNC3)nc12` [(VII-095), (R)-N-(2-(cyclopentyloxy)benzyl)-8-isopropyl-2-(piperidin-3-yloxy)pyrazolo[1,5-a][1,3,5]triazin-4-amine], the IC50 was above 2500 nM at CDK9/Cyclin T1, above 25 nM on CDK7/CycH/Mat1 (setting [1]) and above 2500 nM at CDK2/CycA.
Take `CC(C)c1cnn2c(NCc3ccccc3C(N)=O)nc(O[C@@H]3CCCNC3)nc12` [(VII-096), (R)-2-(((8-isopropyl-2-(piperidin-3-yloxy)pyrazolo[1,5-a][1,3,5]triazin-4-yl)amino)methyl)benzamide]: the IC50 at CDK9/Cyclin T1 is 500 to 2500 nM; at CDK7/CycH/Mat1 (setting [1]), below 5 nM; at CDK2/CycA it was 50 to 500 nM.
The corresponding values for `CC(C)c1cnn2c(NCc3ccccc3OC3CCC3)nc(O[C@@H]3CCCNC3)nc12` [(VII-097), (R)-N-(2-cyclobutoxybenzyl)-8-isopropyl-2-(piperidin-3-yloxy)pyrazolo[1,5-a][1,3,5]triazin-4-amine] are above 2500 nM, above 25 nM and above 2500 nM.
The corresponding values for `CC(C)c1cnn2c(NCc3ccccc3Oc3ccccn3)nc(O[C@@H]3CCCNC3)nc12` [(VII-098), (R)-8-isopropyl-2-(piperidin-3-yloxy)-N-(2-(pyridin-2-yloxy)benzyl)pyrazolo[1,5-a][1,3,5]triazin-4-amine] are above 2500 nM, 10 to 25 nM and 500 to 2500 nM.
The corresponding values for `CC(C)c1cnn2c(NCc3ccccc3S(=O)(=O)N3CCOCC3)nc(O[C@@H]3CCCNC3)nc12` [(VII-099), (R)-8-isopropyl-N-(2-(morpholinosulfonyl)benzyl)-2-(piperidin-3-yloxy)pyrazolo[1,5-a][1,3,5]triazin-4-amine] are above 2500 nM, below 5 nM and 500 to 2500 nM.
As for `CC(C)c1cnn2c(NCc3ccccc3Br)nc(O[C@@H]3CCCNC3)nc12` [(VII-100), (R)-N-(2-bromobenzyl)-8-isopropyl-2-(piperidin-3-yloxy)pyrazolo[1,5-a][1,3,5]triazin-4-amine], the IC50 on CDK9/Cyclin T1 is 50 to 500 nM; on CDK7/CycH/Mat1 (setting [1]), below 5 nM; at CDK2/CycA, 50 to 500 nM.
Turning to `CC(C)c1cnn2c(NCc3cccc(Cl)c3Cl)nc(O[C@@H]3CCCNC3)nc12` [(VII-103), (R)-N-(2,3-dichlorobenzyl)-8-isopropyl-2-(piperidin-3-yloxy)pyrazolo[1,5-a][1,3,5]triazin-4-amine], the IC50 on CDK9/Cyclin T1 was in the range of 50 to 500 nM; on CDK7/CycH/Mat1 (setting [1]) it was 10 to 25 nM; at CDK2/CycA, 50 to 500 nM.
As for `CNS(=O)(=O)c1ccccc1CNc1nc(O[C@@H]2CCCNC2)nc2c(C(C)C)cnn12` [(VII-104), (R)-2-(((8-isopropyl-2-(piperidin-3-yloxy)pyrazolo[1,5-a][1,3,5]triazin-4-yl)amino)methyl)-N-methylbenzenesulfonamide], the IC50 on CDK9/Cyclin T1 is above 2500 nM; on CDK7/CycH/Mat1 (setting [1]), below 5 nM; at CDK2/CycA it was 50 to 500 nM.
Take `CC(C)c1cnn2c(NCc3ccccc3S(=O)(=O)N3CCCC3)nc(O[C@@H]3CCCNC3)nc12` [(VII-106), (R)-8-isopropyl-2-(piperidin-3-yloxy)-N-(2-(pyrrolidin-1-ylsulfonyl)benzyl)pyrazolo[1,5-a][1,3,5]triazin-4-amine]: the IC50 is above 2500 nM at CDK9/Cyclin T1, below 5 nM at CDK7/CycH/Mat1 (setting [1]) and 50 to 500 nM at CDK2/CycA.
The corresponding values for `CC(C)c1cnn2c(NCc3ccccc3S(=O)(=O)N3CCN(C)CC3)nc(O[C@@H]3CCCNC3)nc12` [(VII-107), (R)-8-isopropyl-N-(2-((4-methylpiperazin-1-yl)sulfonyl)benzyl)-2-(piperidin-3-yloxy)pyrazolo[1,5-a][1,3,5]triazin-4-amine] are above 2500 nM, below 5 nM and 50 to 500 nM.
`CNC(=O)c1ccccc1CNc1nc(O[C@@H]2CCCNC2)nc2c(C(C)C)cnn12` [(VII-108), (R)-2-(((8-isopropyl-2-(piperidin-3-yloxy)pyrazolo[1,5-a][1,3,5]triazin-4-yl)amino)methyl)-N-methylbenzamide]: the IC50 on CDK9/Cyclin T1 was above 2500 nM; at CDK7/CycH/Mat1 (setting [1]), below 5 nM; on CDK2/CycA, 50 to 500 nM.
